Each structure is given as a SMILES string. Values joined by “and” are separate entries in the source; they are usually repeats but may differ in a detail not shown here. Identical values can stand only once. Like-named read-outs stand apart in the source and are kept apart here.

One series has as its target HDAC2 (Homo sapiens (Human), UniProt Q92769). Briefly: HDAC2 enzymatic inhibition assay in SY5Y cell lysate (HDAC-Glo 2). Format: cell-based. The following applies: SH-SY5Y cells, five hours incubation. As for the experimental part: SH-SY5Y cells (Sigma) were cultured in Eagle's Modified Essential Medium supplemented with 10% fetal bovine serum and pen/strep. Twenty-four hours prior to compound dosing 20 uL of cells were plated in white 384 well plates at a density of 1,500 cells/well. Compounds were serially diluted in neat DMSO and then diluted 1:100 v/v into media without FBS and mixed. Media was removed from the plated cells and the diluted compounds in serum free media (1% v/v final DMSO) were added and incubated at 37.0 for five hours. Ten uL of HDAC-Glo 2 reagent with 0.1% Triton X-100 was then added, the plate was mixed and allowed to develop at room temperature for 100 minutes. Plates were then read with a Spectramax LMax luminometer employing a 0.4 s integration time. Dose response curves were constructed with normalized data where CI-994 at 100 uM was defined as 100% inhibition and DMSO alone as 0% inhibition.

Series [1] in a line: Brain and plasma exposure following IV and PO administration to mice. Format: in vivo. The conditions noted are these: for Projected free brain @ 10 mpk / Brain Cmax @ 10 mpk: 10 mg/kg PO; for half-life / clearance: mouse, plasma; for clearance: read-out: IV PK Cl (converted); for brain Cmax exposure, fold higher than comparator 1 / projected free brain concentration, fold higher than comparator 1: comparator 1 data scaled for comparison. As for the experimental part:
Compounds were dosed in mice at either 10 mg/kg or 30 mg/kg PO, and were dosed at 1 mg/kg IV. Three animals for collection at each time point for plasma via bleeding at 0.25, 0.5, 1, 4, 12 and 24 h. Terminal bleeding for plasma and sampling for brain at 0.25, 0.5, 1, 4, 12 and 24 h (also three animals per brain exposure time point group). Total of six time points for plasma and six time points for brain.
Plasma: The animal was restrained manually at the designated time points, approximately 150 μL blood/time point was collected into K2EDTA tube via retro orbital puncture or cardiac puncture under anesthesia with Isoflurane. The blood sample was centrifuged (2000 g, 4° C., 5 min) to generate plasma within 30 min after bleeding.
Brain: At the designated time points, a mid-line incision was made in the animals scalp and the skin was retracted. Using small bone cutters and rongeurs, removed the skull overlying the brain. Removed the brain using a spatula and rinse with cold saline. Placed the brain in screw-top tubes, and then stored the tubes under −70° C. until analysis.

For series [2], the system named is human megakaryocyte progenitors (CFU-Mk). Briefly: Human megakaryocyte progenitor CFC proliferation (CFU-Mk) in normal bone marrow. Format: cell-based. The conditions noted are these: for IC50: Homo sapiens, 6-point dose response, top concentration 20 μM, read-out: CFU-Mk Total IC50; for % Control CFU-Mk Total @ 10 uM dose: 3-point dose response. As for the experimental part:
Compounds were tested to evaluate the potential effects on human megakaryocyte progenitor proliferation in the CFU-Mk assay. Clonogenic progenitors of the human megakaryocyte (CFU-Mk) lineage were assessed in a semi-solid, collagen-based matrix containing rhIL-3 (10 ng/mL), rhIL-6 (10 ng/mL) and rhTpo (50 ng/mL).
Normal human bone marrow light density cells (lot #0170525), derived from normal bone marrow (NorCal Biologics, California), were stored at −152° C. until required for the assay. On the day of the experiment, the cells were thawed rapidly, the contents of each vial was diluted in 10 mL of Iscove's modified Dulbecco's medium containing 10% fetal bovine serum (IMDM+10% FBS) and washed by centrifugation (approximately 1200 r.p.m. for 10 minutes, room temperature). The supernatant was discarded and the cell pellets resuspended in a known volume of IMDM+10% FBS. A cell count (3% glacial acetic acid) and viability assessment (trypan blue exclusion test) was performed for the bone marrow sample.
All compounds were used as solutions in DMSO at 10 mM. Two different dosing paradigms were used depending on the study, either a six point dose response with top concentration of 20 μM, or a three point dose response with a top concentration of 10 μM. In six point dose response studies, compounds were tested at six distinct concentrations (20, 6.7, 2.2, 0.74, 0.25 and 0.082 μM), with serial dilutions prepared from the 10 mM stock concentration to achieve concentrations of 6.7, 2.2, 0.74, 0.25 and 0.082 mM. When added to the collagen-based media at 1:1000 (v/v), the final desired test concentrations were achieved. In order to generate the 20 μM final concentration, 8 μL of the 10 mM stock was added to the appropriately labeled tube. For the three point dose response studies, serial dilutions were prepared from the stock concentration to achieve concentrations of 2 and 0.4 mM. When added to the collagen-based media at 1:1000 (v/v), the final test concentrations of 10, 2 and 0.4 μM were achieved.
Clonogenic progenitors of the human megakaryocytic (CFU-Mk) lineages were set up in the media formulation described above. All compounds were added to the medium to give the final desired concentrations (20, 6.67. 2.22, 0.74, 0.25, and 0.082 μM). Solvent control cultures (containing no compound but 0.2% DMSO), as well as a standard control (containing no compound and no DMSO), were also initiated.
Human megakaryocyte progenitor assays were initiated with 1.8×10^5 cells per culture (lot #0170525). Following 14-16 days in culture, the cultures were transferred from the 35 mm dishes to labeled glass slides, were fixed (methanol/acetone) and then stained using an anti-human CD41 antibody and an alkaline phosphate detection system according to manufacturers' instructions. The colonies were assessed microscopically and scored by trained personnel and divided into the following categories based on size; CFU-Mk (3-20), CFU-Mk (21-49), CFU-Mk (≥50).
The mean±1 standard deviation of three replicate cultures was calculated for the progenitors. Two-tailed standard t-tests were performed to assess if there was a difference in the number of colonies generated between solvent control and treated cultures. Due to the potential subjectivity of colony enumeration, a p value of less than 0.01 is deemed significant. To calculate the concentration of 50% inhibition of colony growth (IC50) for each compound, a dose response curve was generated plotting the log of the compound concentration versus the percentage of control colony growth using Graphpad Prism 7.
Megakaryocyte colony enumeration was performed by trained personnel. In addition, the distribution of colony types as well as general colony and cellular morphology was analyzed. The variance in colony number detected in replicate cultures was representative of the historical coefficient of variation for colony enumeration using these types of assays. […]

Where [3] appears, read: iv, 1 mg/kg, mice, 1 mg/kg IV, read-out: IV PK T1/2 (converted).
Setting [4] is: po, 10 mg/kg, mice, PO, read-out: PO T1/2 (converted).

HDAC2, sequence (Q92769 whole entry): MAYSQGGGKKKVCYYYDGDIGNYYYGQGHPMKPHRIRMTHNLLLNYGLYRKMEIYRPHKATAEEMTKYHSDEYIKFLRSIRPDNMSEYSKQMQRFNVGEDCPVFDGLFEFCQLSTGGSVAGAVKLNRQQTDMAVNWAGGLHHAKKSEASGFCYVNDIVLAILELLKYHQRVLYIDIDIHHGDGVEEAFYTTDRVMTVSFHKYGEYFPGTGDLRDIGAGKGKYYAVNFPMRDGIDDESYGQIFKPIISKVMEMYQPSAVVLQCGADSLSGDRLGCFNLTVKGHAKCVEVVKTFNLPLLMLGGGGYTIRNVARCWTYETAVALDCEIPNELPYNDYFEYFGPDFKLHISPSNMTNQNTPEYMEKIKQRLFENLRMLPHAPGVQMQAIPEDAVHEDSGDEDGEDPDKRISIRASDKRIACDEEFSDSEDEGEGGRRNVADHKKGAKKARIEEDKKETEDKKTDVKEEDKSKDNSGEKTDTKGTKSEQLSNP

As to `Nc1ccc(-c2ccc(F)cc2)nc1NC(=O)N1Cc2cn(C3COC3)nc2C1` [Compound 1], the 50% inhibitory concentration (IC50) at HDAC2 was in the range of 100 to 1000 nM. In series [1] (mice), the “Projected free brain @ 10 mpk” value came out at 0.324 µM and the “Brain Cmax @ 10 mpk” value turned out to be 636 ng/g. Besides, the half-life in series [1] (setting [3]) is 187 min. The half-life in series [1] (setting [4]) is 123 min. In series [1] (mice, 1 mg/kg IV), the clearance was 7.02 mL/min/kg.

Take `Cc1ncc2c(n1)CN(C(=O)Nc1nc(-c3ccc(F)s3)ccc1N)C2` [Compound 2]: the half-maximal inhibitory concentration (IC50) is 1000 to 1500 nM against HDAC2 and 2000 nM in series [2]. For the same molecule, the “Projected free brain @ 10 mpk” value in series [1] (mice) was 0.438 µM. Further, the “Brain Cmax @ 10 mpk” value in series [1] (mice) stood at 760 ng/g. Besides, the half-life is 38.6 min in series [1] (setting [3]) and 75 min in series [1] (setting [4]). For the same molecule, in series [1] (mice, 1 mg/kg IV), the clearance was 67.7 mL/min/kg.

Turning to `CCc1ncc2c(n1)CN(C(=O)Nc1nc(-c3cccs3)ccc1N)C2` [Compound 3], the results for the half-inhibitory concentration (IC50) (at HDAC2; in series [2]) were 100 to 1000 nM and 2000 nM, respectively. Further, the “Projected free brain @ 10 mpk” value in series [1] (mice) turned out to be 0.387 µM. Moreover, the “Brain Cmax @ 10 mpk” value in series [1] (mice) is given as 526 ng/g. Moreover, the half-life in series [1] (setting [3]) is 44.2 min; in series [1] (setting [4]), 88.8 min. Moreover, the clearance in series [1] (mice, 1 mg/kg IV) is 25 mL/min/kg.

For the molecule `Cc1ncc(-c2ccc(N)c(NC(=O)N3Cc4cn(CC(F)F)nc4C3)n2)s1` [Compound 5], at HDAC2, the IC50 lay within 100 to 1000 nM. Also, in series [2], the “% Control CFU-Mk Total @ 10 uM dose” value amounted to 36%. For the same molecule, in series [1] (mice), the “Projected free brain @ 10 mpk” value amounted to 0.302 µM and the “Brain Cmax @ 10 mpk” value is 277 ng/g. In addition, in series [1] (setting [3]), the half-life is 169 min. Besides, in series [1] (setting [4]), the half-life was 140 min. Moreover, the clearance in series [1] (mice, 1 mg/kg IV) was 5.9 mL/min/kg.

As for `CCc1cc2c(cn1)CN(C(=O)Nc1nc(-c3cccnc3)ccc1N)C2` [Compound 8], on HDAC2, the IC50 was 100 to 1000 nM. The “Projected free brain @ 10 mpk” value in series [1] (mice) stood at 0.222 µM. Also, in series [1] (mice), the “Brain Cmax @ 10 mpk” value stood at 279 ng/g. For the same molecule, the half-life in series [1] (setting [3]) is 37.7 min; in series [1] (setting [4]), 76.2 min. In addition, the clearance in series [1] (mice, 1 mg/kg IV) was 35.2 mL/min/kg.

As for `COCCn1cc2c(n1)CN(C(=O)Nc1nc(-c3ccc(F)cc3F)ccc1N)C2` [Compound 9], the 50% inhibitory concentration (IC50) was 100 to 1000 nM at HDAC2 and 10800 nM in series [2]. For the same molecule, in series [1] (mice), the “Projected free brain @ 10 mpk” value is 0.881 µM and 0.795 µM. Also, in series [1] (mice), the “Brain Cmax @ 10 mpk” value is 1533 ng/g and 1383 ng/g. For the same molecule, in series [1] (mice, PO), the “PO T1/2” value stood at 1.01 h. Further, the values for the half-life in series [1] (setting [3]) and in series [1] (setting [4]) were 38.6 min and 83.4 min, respectively. Also, in series [1] (mice, 1 mg/kg IV), the clearance was 27.8 mL/min/kg.

Turning to `Cc1cc2c(cn1)CN(C(=O)Nc1nc(-c3cccnc3)ccc1N)C2` [Compound 12], the results for the IC50 (on HDAC2; in series [2]) were 100 to 1000 nM and > 20000 nM, respectively. In series [1] (mice), the “Projected free brain @ 10 mpk” value worked out at 0.386 µM. Besides, the “Brain Cmax @ 10 mpk” value in series [1] (mice) came out at 237 ng/g. The values for the half-life in series [1] (setting [3]) and in series [1] (setting [4]) were 30.8 min and 220 min, respectively. The clearance in series [1] (mice, 1 mg/kg IV) was 29.5 mL/min/kg.

The molecule `Cc1ncc2c(n1)CN(C(=O)Nc1nc(-c3ccc(F)cc3)ccc1N)C2` [Compound 14] gave an IC50 at HDAC2 of 100 to 1000 nM. For the same molecule, the “% Control CFU-Mk Total @ 10 uM dose” value in series [2] is 31%. For the same molecule, in series [1], the “brain Cmax exposure, fold higher than comparator 1” value is listed as 4 fold and the “projected free brain concentration, fold higher than comparator 1” value amounted to 4 fold. Further, in series [1] (mice), the “Projected free brain @ 10 mpk” value came out at 0.403 µM and the “Brain Cmax @ 10 mpk” value is 633 ng/g. For the same molecule, the half-life in series [1] (setting [3]) is 125 min. The half-life in series [1] (setting [4]) is 193 min. For the same molecule, the clearance in series [1] (mice, 1 mg/kg IV) is 14.3 mL/min/kg.

`CCc1ncc2c(n1)CN(C(=O)Nc1nc(-c3ccc(F)cc3)ccc1N)C2` [Compound 17] registered an IC50 against HDAC2 of 1000 to 1500 nM. Besides, in series [2], the “% Control CFU-Mk Total @ 10 uM dose” value came out at 28%. In series [1], the “brain Cmax exposure, fold higher than comparator 1” value is reported as ~7 fold and the “projected free brain concentration, fold higher than comparator 1” value is 5 fold. In series [1] (mice), the “Projected free brain @ 10 mpk” value was 0.568 µM and the “Brain Cmax @ 10 mpk” value amounted to 1241 ng/g. In series [1] (setting [3]), the half-life was 124 min. Further, in series [1] (setting [4]), the half-life was 152 min. The clearance in series [1] (mice, 1 mg/kg IV) is 24.8 mL/min/kg.

Source of the values: patent US10793567B2, “Bicyclic inhibitors of histone deacetylase” (Rodin Therapeutics, Inc., priority 2017, dated 2020).
